Reference: US9518976B2, “Methods for identifying or assaying for agents that increase beta-cell proliferation, insulin secretion, insulin sensitivity, glucose tolerance and decrease fat mass” (The Trustees of Columbia University in The City of New York, priority 2006, dated 2016)
Blank lines part the entries; values can stand above or below the molecule they belong to. Ends that are not written are not given here.

Assays:
Wild type adipocytes = assay: Adiponectin expression in wt adipocytes treated with osteocalcin (real time PCR); type: cell-based, mouse
Text: (§1) FIG. 7. Esp−/− Mice Are a Model of Increased Osteocalcin Bioactivity. (A-G) Comparison between 6-week-old WT, Esp−/, Ocn+/−, and Esp−/−; Ocn+/− mice. (A) Blood glucose levels. (B) Serum insulin levels. (C) Serum adiponectin levels. (D) GTT. (E) ITT. (F) GSIS test. (G) Quantification of the number of Ki67-immunoreactive cells in pancreatic islets. […] (J) Expression of Adiponectin in WT adipocytes cocultured with osteoblasts treated with warfarin or vehicle. (K) Expression of Adiponectin in WT adipocytes cultured in presence of vehicle or of 1 ng/ml of commercially available carboxylated osteocalcin (Immunotopics) or bacterially produced uncarboxylated osteocalcin. (L) Expression of Insulin and Cyclin D1 in WT islets cultured in presence of 0.3 ng/ml of bacterially produced uncarboxylated osteocalcin or vehicle. (M) Metabolic parameters and total serum osteocalcin levels in control and obese patients. (N-O) Quantification of carboxylated osteocalcin (HA-bound osteocalcin) in control and obese patients. In (A)-(C) and (G)-(L): *p<0.05 versus WT (Student's t test); in (D)-(F), °p<0.05 versus WT and *p % 0.001 versus WT (ANOVA followed by post hoc analysis).
FIG. 15. […] Wt adipocytes were treated for 4 hours with recombinant full-length osteocalcin (1-46) or a truncated form (1-36) or vehicle. Adiponectin expression was then quantified by real time PCR.
Primary adipocytes were isolated from epididymal fat pads by collagenase digestion. Briefly, minced adipose tissue was digested by 1 mg/ml collagenase P in KRP Buffer (20 mM HEPES, 120 mM NaCl, 6 mM KCl, 1.2 mM MgSO4, 1 mM CaCl2, 0.6 mM Na2HPO4, 0.4 mM NaH2PO4, 2.5 mM D-glucose, 2% BSA, pH 7.4) for 1 h at 37° C. The isolated cells were washed twice with KRP Buffer before being cultured in αMEM/1% FBS at 37° C. in 5% CO2.
(§2) All gene expression analyses were performed using real time PCR. DNAse I-treated total RNA was converted to cDNA with the SuperScript III kit (Invitrogen). Real-time PCR were performed using the Taq SYBR Green Supermix with ROX (Biorad) on an MX3000 instrument (Stratagene); beta-actin amplification was used as an internal reference for each sample. All primers were from SuperArray.
Experiments were performed to test whether truncated osteocalcin was as effective as full-length uncarboxylated osteocalcin in stimulating adiponectin secretion from mouse adipocytes in vitro. Wild type adipocytes were treated for 4 hours with recombinant full-length osteocalcin (1-46) or a truncated form (1-36) (having a deletion of the […] ten amino acids from the C-terminal end) or vehicle. Adiponectin expression was then quantified by real time PCR. […]

beta-cells = assay: Streptozotocin (STZ) injection in WT and Esp−/− mice: survival and blood glucose; type: in vivo, mouse; details: eight days after injection
Text: FIG. 3. Esp−/− Mice Are Protected from Obesity and Glucose Intolerance. A-F) Food intake per day (A), body weight curve (B), fat pad mass (C), serum triglyceride levels (D), GTT (E), and ITT (F) in 4-month-old WT and Esp−/− mice 3 months after GTG or vehicle injection. (G-I) Body weight curve (G), GTT (H), and ITT (I) in 3 month-old WT and Esp−/− mice fed a high fat diet for 6 weeks. (J and K) Serum insulin levels (J) and pancreatic insulin content (K) in 1-month-old WT and Esp−/− mice 8 days after STZ or vehicle injection. (L and M) Survival of mice (L) and change of blood glucose levels (M) in 1-month-old WT and Esp−/− mice during the 8 days following STZ injection. (N) Urinary glucose assays in 1-month-old WT and Esp−/− mice 8 days after STZ injection. In (A)-(F), (J), and (K): a, WT versus Esp−/−; b, WT+GTG (or STZ) versus WT+vehicle; c, WT+GTG (or STZ) versus Esp−/−+GTG (or STZ); d, Esp−/−+GTG (or STZ) versus Esp−/−+vehicle. In (G)-(I) and (M), *p<0.05 WT versus Esp−/−. In (A), (C), (D), (J), and (K), Student's t test, p<0.05 for a-d; in (B), (E)-(I), (L), and (M), ANOVA followed by post hoc analysis when number of groups >2, p % 0.001 for a-d.
For glucose tolerance test (GTT), glucose (2 g/kg body weight (BW)) was injected intraperitoneally (IP) after an overnight fast and blood glucose was monitored using blood glucose strips and the Accu-Check glucometer (Roche) at indicated times. For glucose stimulated insulin secretion test (GSIS), glucose (3 g/kg BW) was injected IP after an overnight fast; sera were collected from tails and insulin measured as described (Mauvais-Jarvis et al., 2000). For insulin tolerance test (ITT), mice were fasted for six hours, injected IP with insulin (0.2 U/kg BW) and blood glucose levels were measured at indicated times as described (Mauvais-Jarvis et al., 2002). ITT data are presented as percentage of initial blood glucose concentration. Gold thioglucose (600 mg/kg BW, USP) was injected IP after an overnight fast, mice were sacrificed 3 months later for analysis. Streptozotocin ([…] single injection, Sigma) was injected IP and blood glucose measured as described above every 2 days thereafter. After 8 days, pancreases were isolated to measure insulin content as previously described (Mauvais-Jarvis et al., 2000). Food intake was measured using metabolic cages as the daily change of food weight. Energy expenditure was measured using metabolic cages connected to a calorimeter (Columbus Instrument). Heat values (Kcal/Hr) were recorded over 2 days and reported to each mouse BW.
Whether the increase in insulin sensitivity could protect Esp−/− mice from pancreatic beta-cell failure was determined. […] Unlike STZ-treated WT mice, glucose could not be detected in urine of STZ-injected Esp−/− mice (FIG. 3N).

gamma carboxylase = molecular target: T1, gamma carboxylase (Homo sapiens, UniProt P38435); details: thiol-specific inhibitors; cited from earlier work
T1 sequence (P38435 1-758): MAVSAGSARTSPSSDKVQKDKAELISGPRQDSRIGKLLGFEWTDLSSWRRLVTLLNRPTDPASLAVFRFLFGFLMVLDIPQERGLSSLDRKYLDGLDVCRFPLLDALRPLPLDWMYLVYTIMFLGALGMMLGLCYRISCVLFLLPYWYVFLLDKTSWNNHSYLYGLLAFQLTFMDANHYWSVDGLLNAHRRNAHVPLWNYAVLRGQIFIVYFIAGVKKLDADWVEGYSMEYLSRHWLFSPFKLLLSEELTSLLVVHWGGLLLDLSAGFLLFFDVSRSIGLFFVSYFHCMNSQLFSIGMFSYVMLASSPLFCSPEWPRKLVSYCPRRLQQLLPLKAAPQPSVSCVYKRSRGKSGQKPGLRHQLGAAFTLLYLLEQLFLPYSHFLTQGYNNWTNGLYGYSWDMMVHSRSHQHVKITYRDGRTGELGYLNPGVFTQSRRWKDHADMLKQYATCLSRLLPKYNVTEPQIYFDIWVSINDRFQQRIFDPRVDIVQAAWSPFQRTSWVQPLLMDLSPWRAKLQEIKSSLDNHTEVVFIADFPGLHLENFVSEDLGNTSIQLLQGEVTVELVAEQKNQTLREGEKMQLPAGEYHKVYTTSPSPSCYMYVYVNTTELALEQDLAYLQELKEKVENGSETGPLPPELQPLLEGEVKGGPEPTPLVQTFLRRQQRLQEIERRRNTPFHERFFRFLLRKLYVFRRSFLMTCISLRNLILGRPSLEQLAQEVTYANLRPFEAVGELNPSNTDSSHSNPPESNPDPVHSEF

wild type osteoblasts = assay: Isoproterenol on wild type osteoblasts: mRNA levels by quantitative PCR; type: cell-based, mouse
Experimental: as §2
It was discovered that sympathetic nervous system (SNS) activity positively regulates Esp expression in osteoblasts. […] Thus, decreasing sympathetic activity should lead to a decrease in Esp expression and thereby to an increase in the undercarboxylated, active form of osteocalcin.

osteoblasts = assay: Osteocalcin/hydroxyapatite (HA) binding assay on medium of warfarin-treated osteoblasts; type: cell-based, mouse
Experimental: Primary osteoblasts were prepared from calvaria of 5 day-old pups as previously described (Ducy et al., 2000a) and were cultured in αMEM/10% FBS in the presence of 100 μg/ml ascorbic acid and 5 mM β-glycerophosphate for 5 days. Skin fibroblasts were isolated by collagenase digestion (0.5 mg/ml) and were cultured in […]MEM/10% FBS. Twenty-four hours before addition of primary islets (or adipocytes), osteoblasts (or fibroblasts) were placed in αMEM/1% FBS. […] After 4 h of co-culture, either in the presence or absence of (1 μm) culture inserts (Falcon) islets (or adipocytes) were collected for RNA isolation using TRIZOL (Invitrogen).
Sera from 1 month-old mice, obese patients or supernatant from warfarin-treated osteoblast cultures were added to HA slurry to achieve a final concentration of 25 mg slurry/ml. After 15 min (mouse sera, supernatant) or 30 min (human sera), HA beads were pelleted by centrifugation and HA-bound osteocalcin was eluted with 0.5M sodium phosphate buffer, pH 8.0. Osteocalcin present in eluates and initial samples was measured by IRMA. Values represent percentage of HA-bound osteocalcin over initial osteocalcin content. Hauschka, P. V., et al., Physiol Review 69, 990-1047 (1989).
To determine whether this was the case, two additional experiments were performed. […] Second, carboxylated osteocalcin and bacterially produced mouse osteocalcin, which is not carboxylated, were used in cell-based assays. […] Lastly, we studied human obese patients that are hyperinsulinemic but not diabetic (FIG. 7M).

WT adipocytes = assay: Adiponectin expression in WT adipocytes cocultured with warfarin-treated osteoblasts; type: cell-based, mouse; details: adipocytes cocultured with warfarin-treated vs vehicle-treated osteoblasts (FIG. 7J)
Text: as §1
Primary osteoblasts were prepared from calvaria of 5 day-old pups as previously described (Ducy et al., 2000a) and were cultured in αMEM/10% FBS in the presence of 100 μg/ml ascorbic acid and 5 mM β-glycerophosphate for 5 days. […]

[1] = osteoporotic patients, cited from earlier work
[2] = read-out: Kd to hydroxyapatite; cited from earlier work

Molecule: 1-36 fragment of uncarboxylated osteocalcin: Recombinant truncated mouse osteocalcin (1-36), ten amino acids deleted from the C-terminal end (YLGASVPSPDPLEPTREQCELNPACDELSDQYGLKT; not fully specified; ends and bridges not checked; UniProt P86546 50-85, looked up, fragment)
Adiponectin expression increase (Wild type adipocytes; wild type adipocytes treated for 4 hours, real time PCR, vs vehicle): ~1.8 fold
potency in inducing adiponectin expression in vitro (Wild type adipocytes; wt adipocytes, 4 hours (FIG. 15 legend)): as potent as native osteocalcin

Molecule: CN(N=O)C(=O)N[C@H]1C(O)O[C@H](CO)[C@@H](O)[C@@H]1O (mixture of isomers) [STZ, streptozotocin]
blood glucose level of surviving mice (beta-cells; STZ-treated Esp−/− mice): ≤ 250 mg/dL
mice died (beta-cells; STZ-treated Esp−/− mice): one
mice died (beta-cells; STZ-treated WT mice): 3 of the 7
serum glucose levels of surviving mice (beta-cells; STZ-treated WT mice): above 500 mg/dl

Molecule: CCN1C(=O)C=CC1=O [N-ethylmaleimide (NEM), N-ethylmaleimide]
inhibition of gamma carboxylase (gamma carboxylase): inhibited

expression of gamma-carboxylase (ggcx) (wild type osteoblasts): did not increase
Molecule: CC(C)NCC(O)c1ccc(O)c(O)c1 (stereo not drawn) [isoproterenol]
expression of osteocalcin (wild type osteoblasts): did not increase
expression of vkor (wild type osteoblasts): did not increase
increase of Esp expression (wild type osteoblasts; at 8 hours): remains steady
increase of Esp expression (wild type osteoblasts; by 4 hours): about 80%

Molecule: O=C([O-])c1cc[c]([Hg][OH])cc1 [p-hydroxymurcuribenzoate (pHMB), p-hydroxymurcuribenzoate]
inhibition of gamma carboxylase (gamma carboxylase): inhibited

percentage of osteocalcin bound to HA (osteoblasts; conditioned medium of warfarin-treated osteoblasts vs vehicle, 50 μM, 48 h, 15 min HA incubation): marked decrease
levels of undercarboxylated osteocalcin produced by osteoblasts (osteoblasts; warfarin-treated vs vehicle-treated osteoblasts (FIG. 7I)): elevated
Molecule: CC(=O)CC(c1ccccc1)c1c(O)c2ccccc2oc1=O (stereo not drawn) [warfarin]
osteocalcin secreted by osteoblasts (osteoblasts; warfarin-treated osteoblasts (vehicle 10 ng/ml)): 2 ng/mL
adiponectin expression induced by treated osteoblasts (WT adipocytes): significantly higher extent

Molecule: Vitamin D
effect on undercarboxylated osteocalcin ([1]; alone or together with Vitamin K): no significant effect

Molecule: Vitamin K
percentage mean decrease in undercarboxylated osteocalcin ([1]; four weeks of treatment, vs controls without Vitamin K): 85%

Molecule: carboxylated osteocalcin: commercially available carboxylated osteocalcin (Immunotopics) (YLYQWLGAPVPYPDPLEPRREVCELNPDCDELADHIGFQEAYRRFYGPV; ends and bridges not checked; also: carboxylated (Gla) residues, sites not given here; UniProt P02818 52-100, looked up) [reference compound]
induction of adiponectin expression (Wild type adipocytes; WT adipocytes, 1 ng/ml (FIG. 7K)): failed to induce

B1: Osteocalcin: normal (Gla-containing) osteocalcin, small vitamin K-dependent calcium binding protein; literature data (protein, listed as Homo sapiens)
chain: MRALTLLALLALAALCIAGQAGAKPSGAESSKGAAFVSKQEGSEVVKRPRRYLYQWLGAPVPYPDPLEPRREVCELNPDCDELADHIGFQEAYRRFYGPV
Kd [2]: ~100 nM
